In patent US11130778B2, “CD73 inhibitors” (ORIC Pharmaceuticals, Inc., priority 2019, dated 2021):

target: T1, CD73 (Homo sapiens, UniProt P21589); assay: Biochemical assay of CD73 inhibition (Malachite Green); details: CD73 0.3208 nM, AMP 15 μM, Tris-HCl pH 7.4, Malachite Green absorbance readout; read-out: CD73_Biochem
T1 sequence (P21589 27-549): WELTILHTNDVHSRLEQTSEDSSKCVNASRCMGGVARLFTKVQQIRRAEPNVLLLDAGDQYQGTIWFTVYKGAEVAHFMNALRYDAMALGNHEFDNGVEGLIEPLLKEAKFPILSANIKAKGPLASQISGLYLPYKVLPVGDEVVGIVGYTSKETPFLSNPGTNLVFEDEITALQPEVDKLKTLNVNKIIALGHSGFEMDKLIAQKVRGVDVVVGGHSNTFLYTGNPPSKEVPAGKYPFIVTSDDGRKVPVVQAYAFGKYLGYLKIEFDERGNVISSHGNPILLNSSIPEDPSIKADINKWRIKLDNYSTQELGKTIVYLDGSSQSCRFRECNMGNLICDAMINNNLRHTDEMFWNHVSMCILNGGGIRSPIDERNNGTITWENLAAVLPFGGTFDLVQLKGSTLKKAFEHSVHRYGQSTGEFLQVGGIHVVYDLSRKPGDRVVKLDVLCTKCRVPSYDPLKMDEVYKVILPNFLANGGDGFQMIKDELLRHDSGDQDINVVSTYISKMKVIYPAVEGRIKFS
Description: Example A1: Biochemical Assay
Assay Reaction Conditions
• Assay Volume: 70 μl • Reaction Volume: 50 μl • CD73: 0.3208 nM • AMP:15 μM • Assay Buffer: 2 5 mM Tris-HCL, pH 7.4, 0.01% Brij-35, 0.01% BSA, 5 mM MgCl2 Assay Procedure:
Made dose titration of testing compounds in assay buffer, 10 points 1/2 log titrations in duplicates starting at 100 μM.
Added 25 µl of CD73 to each well for a final concentration of […].
Incubated at RT for 15 min.
Added 25 µl of AMP to each well for a final concentration of 15 μM.
Incubated at RT for 10 min.
Added […] of Malachite Green Reagent A, incubate at RT for 10 min.
Added […] of Malachite Green Reagent B, incubate at RT for 45 min.
Read the Absorbance on Envision plate reader using excitation filter: Cy5 […].
The ability of the compounds disclosed herein to inhibit CD73 activity was quantified and the respective IC50 values were determined. Table 2 provides the biochemical IC50 values of compounds disclosed herein.

Question: `O=P(O)(O)C(CO)(CCc1nnn[nH]1)OC[C@H]1O[C@@H](n2ncc3c(NC4CCCC4)nc(Cl)nc32)[C@H](O)[C@@H]1O` (stereo partly drawn) [Example 18, (2-(((2R,3S,4R,5R)-5-(6-chloro-4-(cyclopentylamino)-1H-pyrazolo[3,4-d]pyrirnidin-1-yl)-3,4-dihydroxytetrahydrofuran-2-yl)methoxy)-1-hydroxy-4-(1H-tetrazol-5-yl)butan-2-yl)phosphonic acid] was tested. Which IC50 did it give?
Answer: ≤ 10 nM

Question: With `O=P(O)(O)[C@](CO)(Cc1nn[nH]n1)OC[C@H]1O[C@@H](n2ncc3c(NCC4CCC4)nc(Cl)nc32)[C@H](O)[C@@H]1O` [Example 19, ((S)-2-(((2R,3S,4R,5R)-5-(6-chloro-4-((cyclobutylmethyl)amino)-1H-pyrazolo[3,4-d]pyrimidin-1-yl)-3,4-dihydroxytetrahydrofuran-2-yl)methoxy)-1-hydroxy-3-(2H-tetrazol-5-yl)propan-2-yl)phosphonic acid] as the compound, how does the IC50 read?
Answer: ≤ 10 nM

Question: With `O=P(O)(O)[C@@](CO)(Cc1nn[nH]n1)OC[C@H]1O[C@@H](n2ncc3c(NCC4CCC4)nc(Cl)nc32)[C@H](O)[C@@H]1O` [Example 20, ((R)-2-(((2R,3S,4R,5R)-5-(6-chloro-4-((cyclobutylmethyl)amino)-1H-pyrazolo[3,4-d]pyrimidin-1-yl)-3,4-dihydroxytetrahydrofuran-2-yl)methoxy)-1-hydroxy-3-(2H-tetrazol-5-yl)propan-2-yl)phosphonic acid] as the compound, how does the IC50 read?
Answer: 10 to 100 nM

Question: `O=P(O)(O)[C@](CO)(COCc1nn[nH]n1)OC[C@H]1O[C@@H](n2ncc3c(NCC4CC4)nc(Cl)nc32)[C@H](O)[C@@H]1O` [Example 21, ((R)-1-((2H-tetrazol-5-yl)methoxy)-2-(((2R,3S,4R,5R)-5-(6-chloro-4-((cyclopropylmethyl)amino)-1H-pyrazolo[3,4-d]pyrimidin-1-yl)-3,4-dihydroxytetrahydrofuran-2-yl)methoxy)-3-hydroxypropan-2-yl)phosphonic acid] was tested. Which IC50 did it give?
Answer: ≤ 10 nM

Question: How did the IC50 turn out when `COCC(CC(=O)NS(=O)(=O)N(C)C)(OC[C@H]1O[C@@H](n2ncc3c(NC4CCCC4)nc(Cl)nc32)[C@H](O)[C@@H]1O)P(=O)(O)O` (stereo partly drawn) [Example 22, (2-(((2R,3S,4R,5R)-5-(6-chloro-4-(cyclopentylamino)-1H-pyrazolo[3,4-d]pyrimidin-1-yl)-3,4-dihydroxytetrahydrofuran-2-yl)methoxy)-4-((N,N-dimethylsulfamoyl)amino)-1-methoxy-4-oxobutan-2-yl)phosphonic acid] was run?
Answer: ≤ 10 nM

Question: For `COCC(Cc1nn[nH]n1)(OC[C@H]1O[C@@H](n2ncc3c(NC(C)C)nc(Cl)nc32)[C@H](O)[C@@H]1O)P(=O)(O)O` (stereo partly drawn) [Example 23, (2-(((2R,3S,4R,5R)-5-(6-chloro-4-(isopropylamino)-1H-pyrazolo[3,4-d]pyrimidin-1-yl)-3,4-dihydroxytetrahydrofuran-2-yl)methoxy)-1-methoxy-3-(2H-tetrazol-5-yl)propan-2-yl)phosphonic acid], which IC50 is on record?
Answer: ≤ 10 nM

Question: Which IC50 does the source give for `O=P(O)(O)[C@](CO)(COCc1nn[nH]n1)OC[C@H]1O[C@@H](n2ncc3c(NC4CCCC4)nc(Cl)nc32)[C@H](O)[C@@H]1O` [Example 24, ((R)-1-((2H-tetrazol-5-yl)methoxy)-2-(((2R,3S,4R,5R)-5-(6-chloro-4-(cyclopentylamino)-1H-pyrazolo[3,4-d]pyrimidin-1-yl)-3,4-dihydroxytetrahydrofuran-2-yl)methoxy)-3-hydroxypropan-2-yl)phosphonic acid] here?
Answer: ≤ 10 nM

Question: For `O=P(O)(O)[C@@](CO)(COCc1nn[nH]n1)OC[C@H]1O[C@@H](n2ncc3c(NC4CCCC4)nc(Cl)nc32)[C@H](O)[C@@H]1O` [Example 25, ((S)-1-((2H-tetrazol-5-yl)methoxy)-2-(((2R,3S,4R,5R)-5-(6-chloro-4-(cyclopentylamino)-1H-pyrazolo[3,4-d]pyrimidin-1-yl)-3,4-dihydroxytetrahydrofuran-2-yl)methoxy)-3-hydroxypropan-2-yl)phosphonic acid], which IC50 is on record?
Answer: ≤ 10 nM

Question: How did the IC50 turn out when `O=c1[nH]c(C[C@@](CO)(OC[C@H]2O[C@@H](n3ncc4c(NC5CCCC5)nc(Cl)nc43)[C@H](O)[C@@H]2O)P(=O)(O)O)no1` [Example 26, ((R)-2-(((2R,3S,4R,5R)-5-(6-chloro-4-(cyclopentylamino)-1H-pyrazolo[3,4-d]pyrimidin-1-yl)-3,4-dihydroxytetrahydrofuran-2-yl)methoxy)-1-hydroxy-3-(5-oxo-4,5-dihydro-1,2,4-oxadiazol-3-yl)propan-2-yl)phosphonic acid] was run?
Answer: ≤ 10 nM

Question: Which IC50 does the source give for `O=c1[nH]c(C[C@](CO)(OC[C@H]2O[C@@H](n3ncc4c(NC5CCCC5)nc(Cl)nc43)[C@H](O)[C@@H]2O)P(=O)(O)O)no1` [Example 27, ((S)-2-(((2R,3S,4R,5R)-5-(6-chloro-4-(cyclopentylamino)-1H-pyrazolo[3,4-d]pyrimidin-1-yl)-3,4-dihydroxytetrahydrofuran-2-yl)methoxy)-1-hydroxy-3-(5-oxo-4,5-dihydro-1,2,4-oxadiazol-3-yl)propan-2-yl)phosphonic acid] here?
Answer: ≤ 10 nM

Question: Which IC50 does the source give for `CC(C)Nc1nc(Cl)nc2c1cnn2[C@@H]1O[C@H](CO[C@@](CO)(Cc2nn[nH]n2)P(=O)(O)O)[C@@H](O)[C@H]1O` [Example 28, ((S)-2-(((2R,3S,4R,5R)-5-(6-chloro-4-(isopropylamino)-1H-pyrazolo[3,4-d]pyrimidin-1-yl)-3,4-dihydroxytetrahydrofuran-2-yl)methoxy)-1-hydroxy-3-(2H-tetrazol-5-yl)propan-2-yl)phosphonic acid] here?
Answer: 10 to 100 nM

Question: `CC(C)Nc1nc(Cl)nc2c1cnn2[C@@H]1O[C@H](CO[C@](CO)(Cc2nn[nH]n2)P(=O)(O)O)[C@@H](O)[C@H]1O` [Example 29, ((R)-2-(((2R,3S,4R,5R)-5-(6-chloro-4-(isopropylamino)-1H-pyrazolo[3,4-d]pyrimidin-1-yl)-3,4-dihydroxytetrahydrofuran-2-yl)methoxy)-1-hydroxy-3-(2H-tetrazol-5-yl)propan-2-yl)phosphonic acid] was tested. Which IC50 did it give?
Answer: ≤ 10 nM

Question: `COC[C@@](Cc1nn[nH]n1)(OC[C@H]1O[C@@H](n2ncc3c(NC(C)C)nc(Cl)nc32)[C@H](O)[C@@H]1O)P(=O)(O)O` [Example 30, ((S)-2-(((2R,3S,4R,5R)-5-(6-chloro-4-(isopropylamino)-1H-pyrazolo[3,4-d]pyrimidin-1-yl)-3,4-dihydroxytetrahydrofuran-2-yl)methoxy)-1-methoxy-3-(2H-tetrazol-5-yl)propan-2-yl)phosphonic acid] was tested. Which IC50 did it give?
Answer: 10 to 100 nM

Question: How did the IC50 turn out when `COC[C@](Cc1nn[nH]n1)(OC[C@H]1O[C@@H](n2ncc3c(NC(C)C)nc(Cl)nc32)[C@H](O)[C@@H]1O)P(=O)(O)O` [Example 31, ((R)-2-(((2R,3S,4R,5R)-5-(6-chloro-4-(isopropylamino)-1H-pyrazolo[3,4-d]pyrimidin-1-yl)-3,4-dihydroxytetrahydrofuran-2-yl)methoxy)-1-methoxy-3-(2H-tetrazol-5-yl)propan-2-yl)phosphonic acid] was run?
Answer: ≤ 10 nM

Question: How did the IC50 turn out when `CC(C)CNc1nc(Cl)nc2c1cnn2[C@@H]1O[C@H](CO[C@@](CO)(Cc2nn[nH]n2)P(=O)(O)O)[C@@H](O)[C@H]1O` [Example 32, ((S)-2-(((2R,3S,4R,5R)-5-(6-chloro-4-(isobutylamino)-1H-pyrazolo[3,4-d]pyrimidin-1-yl)-3,4-dihydroxytetrahydrofuran-2-yl)methoxy)-1-hydroxy-3-(2H-tetrazol-5-yl)propan-2-yl)phosphonic acid] was run?
Answer: 10 to 100 nM
